The numbers were not newly measured in patent US20030077758A1, “Myc repressor modulation to treat aging-related disorders” (priority 2000, published 2003), which cites them from elsewhere.

This series deals with AP-2 (Homo sapiens, UniProt P05549). Conditions: in vitro; apparently by oxidizing cysteine residues in the AP-2 DNA binding domain.
Sequence of AP-2 (P05549 whole entry, species assumed, the tested form may be a part): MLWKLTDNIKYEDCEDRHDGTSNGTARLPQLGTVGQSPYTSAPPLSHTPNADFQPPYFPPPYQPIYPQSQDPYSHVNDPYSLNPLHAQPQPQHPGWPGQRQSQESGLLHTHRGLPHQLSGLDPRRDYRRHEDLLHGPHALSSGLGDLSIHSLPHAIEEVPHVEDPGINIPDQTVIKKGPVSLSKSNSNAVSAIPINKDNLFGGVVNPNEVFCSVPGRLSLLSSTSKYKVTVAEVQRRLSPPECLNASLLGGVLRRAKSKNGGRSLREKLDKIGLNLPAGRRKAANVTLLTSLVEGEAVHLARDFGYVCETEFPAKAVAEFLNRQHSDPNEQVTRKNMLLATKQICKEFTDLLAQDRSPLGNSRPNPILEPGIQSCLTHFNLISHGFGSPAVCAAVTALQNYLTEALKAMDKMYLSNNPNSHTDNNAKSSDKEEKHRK

`CN(C)C(=O)/N=N/C(=O)N(C)C` [diamide]: the “AP-2 DNA binding activity” value was “inhibited”.

Turning to `OO` [hydrogen peroxide], the “AP-2 DNA binding activity” value is given as “inhibited”.
